Assay results taken from the kinase profiling compilation of Christmann-Franck et al. (2016).

Assays:
Assay in all cases: radiometric filter-binding kinase assay, Kinase HotSpot
Conditions in all cases: compound 0.5 µM; ATP 10 µM
ABL2 (human) = ABL2 (human) (UniProt P42684)
AXL (human) = AXL (human) (UniProt P30530)
BMX (human) = BMX (human) (UniProt P51813)
BRAF (human) = BRAF (human) (UniProt P15056)
CAMKK1 (human) = CAMKK1 (human) (UniProt Q8N5S9)
CDK2 CCNE1 (human) = CDK2 CCNE1 (human) (UniProt P24941+P24864)
CDK9 CCNT1 (human) = CDK9 CCNT1 (human) (UniProt P50750+O60563)
CHEK1 (human) = CHEK1 (human) (UniProt O14757)
CHEK2 (human) = CHEK2 (human) (UniProt O96017)
CLK3 (human) = CLK3 (human) (UniProt P49761)
CSK (human) = CSK (human) (UniProt P41240)
CSNK1G1 (human) = CSNK1G1 (human) (UniProt Q9HCP0)
DSTYK (human) = DSTYK (human) (UniProt Q6XUX3)
DYRK2 (human) = DYRK2 (human) (UniProt Q92630)
EPHB2 (human) = EPHB2 (human) (UniProt P29323)
GRK7 (human) = GRK7 (human) (UniProt Q8WTQ7)
HIPK4 (human) = HIPK4 (human) (UniProt Q8NE63)
ITK (human) = ITK (human) (UniProt Q08881)
[1] = biological target: JAK1 JH1 catalytic (human) (UniProt P23458)
LTK (human) = LTK (human) (UniProt P29376)
MAP3K2 (human) = MAP3K2 (human) (UniProt Q9Y2U5)
MAP3K9 (human) = MAP3K9 (human) (UniProt P80192)
MAPK10 (human) = MAPK10 (human) (UniProt P53779)
MARK3 (human) = MARK3 (human) (UniProt P27448)
MKNK2 (human) = MKNK2 (human) (UniProt Q9HBH9)
NEK1 (human) = NEK1 (human) (UniProt Q96PY6)
NTRK2 (human) = NTRK2 (human) (UniProt Q16620)
NUAK1 (human) = NUAK1 (human) (UniProt O60285)
NUAK2 (human) = NUAK2 (human) (UniProt Q9H093)
PAK7 (human) = PAK7 (human) (UniProt Q9P286)
PKN2 (human) = PKN2 (human) (UniProt Q16513)
PRKCA (human) = PRKCA (human) (UniProt P17252)
PRKCD (human) = PRKCD (human) (UniProt Q05655)
PRKCZ (human) = PRKCZ (human) (UniProt Q05513)
PRKD1 (human) = PRKD1 (human) (UniProt Q15139)
PRKD2 (human) = PRKD2 (human) (UniProt Q9BZL6)
TAOK1 (human) = TAOK1 (human) (UniProt Q7L7X3)
TAOK2 (human) = TAOK2 (human) (UniProt Q9UL54)
TTK (human) = TTK (human) (UniProt P33981)
YES1 (human) = YES1 (human) (UniProt P07947)
PTK6 (human) = PTK6 (human) (UniProt Q13882)
EPHA6 (human) = EPHA6 (human) (UniProt Q9UF33)

Sequence of PAK7 (human) (Q9P286 whole entry, looked up): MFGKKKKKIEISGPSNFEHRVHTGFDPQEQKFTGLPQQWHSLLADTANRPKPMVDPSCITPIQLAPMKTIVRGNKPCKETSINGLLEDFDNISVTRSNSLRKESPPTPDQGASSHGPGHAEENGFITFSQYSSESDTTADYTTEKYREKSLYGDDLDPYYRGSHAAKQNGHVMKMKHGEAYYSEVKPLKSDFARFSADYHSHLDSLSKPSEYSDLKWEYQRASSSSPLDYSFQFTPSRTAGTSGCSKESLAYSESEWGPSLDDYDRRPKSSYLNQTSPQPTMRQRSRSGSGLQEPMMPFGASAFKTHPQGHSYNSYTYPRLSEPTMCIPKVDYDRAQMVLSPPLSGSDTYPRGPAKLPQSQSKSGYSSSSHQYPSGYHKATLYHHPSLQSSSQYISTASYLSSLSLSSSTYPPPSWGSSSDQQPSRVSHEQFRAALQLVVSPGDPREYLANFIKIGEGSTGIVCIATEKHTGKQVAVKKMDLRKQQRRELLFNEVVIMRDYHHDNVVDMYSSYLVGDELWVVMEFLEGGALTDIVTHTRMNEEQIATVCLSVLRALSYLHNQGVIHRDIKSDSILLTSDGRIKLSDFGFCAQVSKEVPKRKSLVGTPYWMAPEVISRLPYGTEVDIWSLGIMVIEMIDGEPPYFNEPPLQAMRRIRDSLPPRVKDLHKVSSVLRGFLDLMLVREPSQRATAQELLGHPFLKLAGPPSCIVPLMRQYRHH
Sequence of LTK (human) (P29376 whole entry, looked up): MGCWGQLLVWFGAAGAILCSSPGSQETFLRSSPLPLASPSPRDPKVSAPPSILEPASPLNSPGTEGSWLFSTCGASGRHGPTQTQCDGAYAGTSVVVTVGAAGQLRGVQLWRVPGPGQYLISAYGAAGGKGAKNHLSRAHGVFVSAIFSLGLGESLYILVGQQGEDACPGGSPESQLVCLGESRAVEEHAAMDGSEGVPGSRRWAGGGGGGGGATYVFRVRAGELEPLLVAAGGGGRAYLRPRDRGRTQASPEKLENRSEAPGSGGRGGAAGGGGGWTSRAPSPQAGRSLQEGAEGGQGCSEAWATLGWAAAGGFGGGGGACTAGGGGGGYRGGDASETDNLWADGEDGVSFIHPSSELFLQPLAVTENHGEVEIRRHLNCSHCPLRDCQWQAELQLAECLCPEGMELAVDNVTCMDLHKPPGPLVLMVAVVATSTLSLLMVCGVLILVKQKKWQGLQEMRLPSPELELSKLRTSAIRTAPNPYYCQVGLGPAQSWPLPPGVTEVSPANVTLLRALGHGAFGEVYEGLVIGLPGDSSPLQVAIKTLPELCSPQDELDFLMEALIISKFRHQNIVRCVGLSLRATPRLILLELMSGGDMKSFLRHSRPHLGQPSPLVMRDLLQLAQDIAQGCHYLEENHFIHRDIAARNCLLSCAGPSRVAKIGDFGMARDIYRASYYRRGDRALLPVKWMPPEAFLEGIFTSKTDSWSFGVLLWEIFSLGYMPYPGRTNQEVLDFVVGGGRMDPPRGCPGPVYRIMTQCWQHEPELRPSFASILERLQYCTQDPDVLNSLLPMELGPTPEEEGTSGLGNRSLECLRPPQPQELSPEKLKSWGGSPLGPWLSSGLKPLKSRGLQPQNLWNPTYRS
Sequence of CSNK1G1 (human) (Q9HCP0 whole entry, looked up): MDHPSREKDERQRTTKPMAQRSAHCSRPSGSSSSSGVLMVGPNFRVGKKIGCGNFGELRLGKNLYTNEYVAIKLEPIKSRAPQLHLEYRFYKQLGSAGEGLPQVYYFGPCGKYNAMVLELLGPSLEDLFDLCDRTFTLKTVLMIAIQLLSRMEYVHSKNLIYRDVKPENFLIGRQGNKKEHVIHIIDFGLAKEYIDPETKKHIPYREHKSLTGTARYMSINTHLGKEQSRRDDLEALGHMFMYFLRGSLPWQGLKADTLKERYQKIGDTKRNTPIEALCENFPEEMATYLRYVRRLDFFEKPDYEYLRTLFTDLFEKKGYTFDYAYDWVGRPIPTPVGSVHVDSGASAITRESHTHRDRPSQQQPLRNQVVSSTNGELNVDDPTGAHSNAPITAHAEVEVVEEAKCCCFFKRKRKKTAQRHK
Sequence of DYRK2 (human) (Q92630 whole entry, looked up): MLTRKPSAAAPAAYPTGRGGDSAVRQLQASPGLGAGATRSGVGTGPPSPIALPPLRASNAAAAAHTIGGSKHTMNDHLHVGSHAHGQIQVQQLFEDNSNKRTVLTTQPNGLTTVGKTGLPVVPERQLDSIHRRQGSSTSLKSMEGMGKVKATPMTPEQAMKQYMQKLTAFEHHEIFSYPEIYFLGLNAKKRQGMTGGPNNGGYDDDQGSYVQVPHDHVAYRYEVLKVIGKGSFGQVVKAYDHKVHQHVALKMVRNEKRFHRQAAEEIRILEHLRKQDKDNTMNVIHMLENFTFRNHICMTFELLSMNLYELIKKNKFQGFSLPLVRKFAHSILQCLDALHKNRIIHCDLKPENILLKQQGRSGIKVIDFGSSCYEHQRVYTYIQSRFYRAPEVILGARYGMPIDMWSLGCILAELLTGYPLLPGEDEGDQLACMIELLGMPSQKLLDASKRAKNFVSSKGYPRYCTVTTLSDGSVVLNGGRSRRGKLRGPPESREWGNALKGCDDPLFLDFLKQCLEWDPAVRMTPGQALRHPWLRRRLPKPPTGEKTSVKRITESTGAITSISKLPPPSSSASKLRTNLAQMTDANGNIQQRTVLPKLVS
Sequence of NUAK2 (human) (Q9H093 whole entry, looked up): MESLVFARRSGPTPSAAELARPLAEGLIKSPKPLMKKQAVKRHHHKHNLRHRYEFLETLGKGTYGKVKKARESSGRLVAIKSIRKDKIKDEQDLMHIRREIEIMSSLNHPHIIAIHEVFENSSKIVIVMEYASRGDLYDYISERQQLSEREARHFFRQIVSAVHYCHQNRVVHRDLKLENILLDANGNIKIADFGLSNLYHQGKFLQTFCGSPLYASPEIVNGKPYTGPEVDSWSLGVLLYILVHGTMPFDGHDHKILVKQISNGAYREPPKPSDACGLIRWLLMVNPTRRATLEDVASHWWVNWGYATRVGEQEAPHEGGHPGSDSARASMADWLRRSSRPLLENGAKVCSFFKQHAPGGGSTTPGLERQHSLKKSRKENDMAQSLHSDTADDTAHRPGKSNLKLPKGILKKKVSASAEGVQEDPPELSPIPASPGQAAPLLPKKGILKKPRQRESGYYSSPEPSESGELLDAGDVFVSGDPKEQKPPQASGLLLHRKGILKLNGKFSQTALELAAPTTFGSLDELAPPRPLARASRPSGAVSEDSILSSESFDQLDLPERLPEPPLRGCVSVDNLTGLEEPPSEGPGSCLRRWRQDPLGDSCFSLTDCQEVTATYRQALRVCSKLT
Sequence of CAMKK1 (human) (Q8N5S9 whole entry, looked up): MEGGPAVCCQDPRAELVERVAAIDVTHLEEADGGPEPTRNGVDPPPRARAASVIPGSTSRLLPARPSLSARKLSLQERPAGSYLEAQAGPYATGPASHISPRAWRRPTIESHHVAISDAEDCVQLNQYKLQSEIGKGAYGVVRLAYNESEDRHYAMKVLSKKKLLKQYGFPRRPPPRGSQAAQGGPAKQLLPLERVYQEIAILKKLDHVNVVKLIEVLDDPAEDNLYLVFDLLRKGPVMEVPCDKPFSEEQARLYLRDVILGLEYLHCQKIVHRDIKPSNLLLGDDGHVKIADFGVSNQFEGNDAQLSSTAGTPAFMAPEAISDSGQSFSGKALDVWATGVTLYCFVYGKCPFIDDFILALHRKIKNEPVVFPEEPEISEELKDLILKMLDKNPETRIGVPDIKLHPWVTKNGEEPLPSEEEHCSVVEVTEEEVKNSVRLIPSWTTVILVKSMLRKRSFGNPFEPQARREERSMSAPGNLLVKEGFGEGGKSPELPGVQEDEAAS
Sequence of HIPK4 (human) (Q8NE63 whole entry, looked up): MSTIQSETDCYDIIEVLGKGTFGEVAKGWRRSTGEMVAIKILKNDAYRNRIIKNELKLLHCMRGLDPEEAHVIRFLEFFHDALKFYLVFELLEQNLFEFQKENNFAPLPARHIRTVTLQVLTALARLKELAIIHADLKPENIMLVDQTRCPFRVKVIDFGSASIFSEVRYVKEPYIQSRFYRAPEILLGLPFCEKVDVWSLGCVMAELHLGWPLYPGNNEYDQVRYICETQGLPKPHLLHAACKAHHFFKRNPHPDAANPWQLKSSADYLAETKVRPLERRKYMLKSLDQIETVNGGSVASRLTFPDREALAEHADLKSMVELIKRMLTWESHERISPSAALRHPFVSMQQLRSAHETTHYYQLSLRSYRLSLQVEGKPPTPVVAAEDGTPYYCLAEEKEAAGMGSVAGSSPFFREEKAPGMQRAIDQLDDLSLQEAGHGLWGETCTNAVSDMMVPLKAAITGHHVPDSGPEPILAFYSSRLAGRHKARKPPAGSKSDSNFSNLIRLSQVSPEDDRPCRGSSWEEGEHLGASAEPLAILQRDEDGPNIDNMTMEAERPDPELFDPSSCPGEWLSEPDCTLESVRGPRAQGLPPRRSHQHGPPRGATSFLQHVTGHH

c1ccc(-c2n[nH]c3c2oc2ccccc23)cc1
residual activity (ABL2 (human)): 86.7% | residual activity (AXL (human)): 101% | residual activity (BMX (human)): 106% | residual activity (BRAF (human)): 96.9% | residual activity (CAMKK1 (human)): 97% | residual activity (CDK2 CCNE1 (human)): 95.6% | residual activity (CDK9 CCNT1 (human)): 83.9% | residual activity (CHEK1 (human)): 117% | residual activity (CHEK2 (human)): 101% | residual activity (CLK3 (human)): 91% | residual activity (CSK (human)): 92.6% | residual activity (CSNK1G1 (human)): 91.6% | residual activity (DSTYK (human)): 82.9% | residual activity (DYRK2 (human)): 95.4% | residual activity (EPHB2 (human)): 83.1% | residual activity (GRK7 (human)): 102% | residual activity (HIPK4 (human)): 103% | residual activity (ITK (human)): 80.4% | residual activity [1]: 104% | residual activity (LTK (human)): 94.8% | residual activity (MAP3K2 (human)): 85.9% | residual activity (MAP3K9 (human)): 97.5% | residual activity (MAPK10 (human)): 93.4% | residual activity (MARK3 (human)): 96.5% | residual activity (MKNK2 (human)): 70% | residual activity (NEK1 (human)): 95.2% | residual activity (NTRK2 (human)): 64% | residual activity (NUAK1 (human)): 96.2% | residual activity (NUAK2 (human)): 95.2% | residual activity (PAK7 (human)): 70.9% | residual activity (PKN2 (human)): 97.5% | residual activity (PRKCA (human)): 92.9% | residual activity (PRKCD (human)): 96.7% | residual activity (PRKCZ (human)): 87.1% | residual activity (PRKD1 (human)): 79.2% | residual activity (PRKD2 (human)): 86.9% | residual activity (TAOK1 (human)): 121% | residual activity (TAOK2 (human)): 80.7% | residual activity (TTK (human)): 95.7% | residual activity (YES1 (human)): 86.1%

O=S(=O)(c1cccc2cnccc12)N1CCCNCC1
residual activity (ABL2 (human)): 87.6% | residual activity (AXL (human)): 97.2% | residual activity (BMX (human)): 104% | residual activity (BRAF (human)): 97.7% | residual activity (CAMKK1 (human)): 108% | residual activity (CDK9 CCNT1 (human)): 80.7% | residual activity (CHEK2 (human)): 98.9% | residual activity (CLK3 (human)): 83.7% | residual activity (CSK (human)): 87.9% | residual activity (CSNK1G1 (human)): 89.6% | residual activity (DSTYK (human)): 90.4% | residual activity (DYRK2 (human)): 97.9% | residual activity (EPHB2 (human)): 83.2% | residual activity (GRK7 (human)): 114% | residual activity (HIPK4 (human)): 103% | residual activity (ITK (human)): 90.7% | residual activity [1]: 111% | residual activity (LTK (human)): 95.2% | residual activity (MAP3K2 (human)): 77.8% | residual activity (MAP3K9 (human)): 94.4% | residual activity (MAPK10 (human)): 85.3% | residual activity (MKNK2 (human)): 72% | residual activity (NEK1 (human)): 90.3% | residual activity (NTRK2 (human)): 102% | residual activity (NUAK1 (human)): 73.2% | residual activity (NUAK2 (human)): 83.5% | residual activity (PAK7 (human)): 73.1% | residual activity (PKN2 (human)): 103% | residual activity (PRKCA (human)): 94.8% | residual activity (PRKCD (human)): 84.7% | residual activity (PRKCZ (human)): 94.7% | residual activity (PRKD1 (human)): 65.1% | residual activity (PRKD2 (human)): 85% | residual activity (PTK6 (human)): 96.1% | residual activity (TAOK1 (human)): 123% | residual activity (TAOK2 (human)): 87.3% | residual activity (TTK (human)): 99.1% | residual activity (YES1 (human)): 96.5%

O=C1NC(=O)c2c1c1c3ccccc3n3c1c1c2c2ccccc2n1C1CCC3O1
residual activity (ABL2 (human)): 68% | residual activity (AXL (human)): 38.1% | residual activity (BMX (human)): 27.5% | residual activity (CAMKK1 (human)): 27.2% | residual activity (CDK2 CCNE1 (human)): 28.5% | residual activity (CDK9 CCNT1 (human)): 8.52% | residual activity (CHEK1 (human)): 3.63% | residual activity (CHEK2 (human)): 13% | residual activity (CLK3 (human)): 97% | residual activity (CSK (human)): 79.7% | residual activity (CSNK1G1 (human)): 96.1% | residual activity (DSTYK (human)): 45.5% | residual activity (DYRK2 (human)): 5.94% | residual activity (EPHA6 (human)): 63.9% | residual activity (EPHB2 (human)): 98.4% | residual activity (GRK7 (human)): 53.4% | residual activity (HIPK4 (human)): 29.1% | residual activity (ITK (human)): 8.29% | residual activity [1]: 22.2% | residual activity (LTK (human)): 21.8% | residual activity (MAP3K2 (human)): 14% | residual activity (MAP3K9 (human)): 8.72% | residual activity (MAPK10 (human)): 138% | residual activity (MARK3 (human)): 8.53% | residual activity (MKNK2 (human)): 9.71% | residual activity (NEK1 (human)): 50.9% | residual activity (NTRK2 (human)): 6.87% | residual activity (NUAK1 (human)): 2.09% | residual activity (NUAK2 (human)): 52% | residual activity (PAK7 (human)): 64.7% | residual activity (PKN2 (human)): 15.9% | residual activity (PRKCA (human)): 13.9% | residual activity (PRKCD (human)): 19% | residual activity (PRKCZ (human)): 87.4% | residual activity (PRKD1 (human)): 1.89% | residual activity (PRKD2 (human)): 2.02% | residual activity (PTK6 (human)): 83.9% | residual activity (TAOK1 (human)): 66.9% | residual activity (TAOK2 (human)): 57.4% | residual activity (TTK (human)): 76.4% | residual activity (YES1 (human)): 31.9%

COc1ccc(COc2ccc(Cc3cnc(N)nc3N)cc2OC)cc1
residual activity (ABL2 (human)): 107% | residual activity (AXL (human)): 96.4% | residual activity (BMX (human)): 93.4% | residual activity (BRAF (human)): 99% | residual activity (CAMKK1 (human)): 115% | residual activity (CDK9 CCNT1 (human)): 92.5% | residual activity (CHEK1 (human)): 107% | residual activity (CHEK2 (human)): 107% | residual activity (CLK3 (human)): 98.3% | residual activity (CSNK1G1 (human)): 92.7% | residual activity (DSTYK (human)): 95% | residual activity (DYRK2 (human)): 105% | residual activity (EPHB2 (human)): 87.4% | residual activity (GRK7 (human)): 104% | residual activity (HIPK4 (human)): 97.7% | residual activity (ITK (human)): 98.1% | residual activity [1]: 105% | residual activity (LTK (human)): 100% | residual activity (MAP3K2 (human)): 108% | residual activity (MAP3K9 (human)): 105% | residual activity (MAPK10 (human)): 84.4% | residual activity (MARK3 (human)): 103% | residual activity (MKNK2 (human)): 90.6% | residual activity (NEK1 (human)): 95.6% | residual activity (NTRK2 (human)): 31.2% | residual activity (NUAK1 (human)): 106% | residual activity (NUAK2 (human)): 98.1% | residual activity (PAK7 (human)): 103% | residual activity (PKN2 (human)): 90.9% | residual activity (PRKCA (human)): 95.9% | residual activity (PRKCD (human)): 87.8% | residual activity (PRKCZ (human)): 93.4% | residual activity (PRKD1 (human)): 95.2% | residual activity (PRKD2 (human)): 99.4% | residual activity (PTK6 (human)): 96.1% | residual activity (TAOK1 (human)): 110% | residual activity (TAOK2 (human)): 94.7% | residual activity (TTK (human)): 105% | residual activity (YES1 (human)): 94.8%

Nc1ccc2ncnc(NCCc3ccc(Oc4ccccc4)cc3)c2c1
residual activity (ABL2 (human)): 102% | residual activity (AXL (human)): 96.1% | residual activity (BMX (human)): 102% | residual activity (CAMKK1 (human)): 119% | residual activity (CDK2 CCNE1 (human)): 95% | residual activity (CDK9 CCNT1 (human)): 101% | residual activity (CHEK1 (human)): 101% | residual activity (CHEK2 (human)): 91.7% | residual activity (CLK3 (human)): 117% | residual activity (CSK (human)): 96.7% | residual activity (CSNK1G1 (human)): 97.6% | residual activity (DSTYK (human)): 101% | residual activity (DYRK2 (human)): 89.6% | residual activity (EPHA6 (human)): 92.8% | residual activity (EPHB2 (human)): 97.7% | residual activity (GRK7 (human)): 104% | residual activity (HIPK4 (human)): 97.4% | residual activity (ITK (human)): 104% | residual activity [1]: 94.6% | residual activity (LTK (human)): 106% | residual activity (MAP3K2 (human)): 98.4% | residual activity (MAP3K9 (human)): 103% | residual activity (MAPK10 (human)): 104% | residual activity (MARK3 (human)): 86.4% | residual activity (MKNK2 (human)): 104% | residual activity (NEK1 (human)): 102% | residual activity (NTRK2 (human)): 104% | residual activity (NUAK1 (human)): 94.7% | residual activity (NUAK2 (human)): 112% | residual activity (PAK7 (human)): 106% | residual activity (PKN2 (human)): 89.7% | residual activity (PRKCA (human)): 103% | residual activity (PRKCD (human)): 97.6% | residual activity (PRKCZ (human)): 96% | residual activity (PRKD1 (human)): 99.3% | residual activity (PRKD2 (human)): 98.2% | residual activity (PTK6 (human)): 93.3% | residual activity (TAOK1 (human)): 84.2% | residual activity (TAOK2 (human)): 102% | residual activity (TTK (human)): 97.6% | residual activity (YES1 (human)): 112%
